Experimental data from PubChem BioAssay AID332 (DTP/NCI, 2004).
Where “and” joins values, the source holds several entries; their conditions need not be identical. Equal entries are not always repeated. Inconclusive results are not listed.

Tested on: mice, ADJ-PC-20 plasma cell tumor sc, T/C %
Test: NCI In Vivo Anticancer Drug Screen. Data for tumor model ADJ-PC-20 Plasma Cell (subcutaneous) in unknown mice
Conditions: endpoint: mean tumor weight, higher = larger tumour
Protocol: The antitumor activity of compounds was measured in mice bearing transplantable tumors. Survival or tumor size were measured and the results are expressed as the measurement made in the treated group (T) divided by the measurement made in the vehicle treated control group (C). The tumor model used in this assay is ADJ-PC-20 Plasma Cell (subcutaneous) in unknown mice

[1] = dose: 62.5 mg/kg/injection, schedule: Q01DX010 (ip), vehicle: carboxymethylcellulose (CMC)
[2] = dose: 125.0 mg/kg/injection, schedule: Q01DX010 (ip), vehicle: carboxymethylcellulose (CMC)
[3] = dose: 500.0 mg/kg/injection, schedule: Q01DX010 (ip), vehicle: carboxymethylcellulose (CMC)
[4] = dose: 1000.0 mg/kg/injection, schedule: Q01DX010 (ip), vehicle: carboxymethylcellulose (CMC)
[5] = dose: 250.0 mg/kg/injection, schedule: Q01DX010 (ip), vehicle: carboxymethylcellulose (CMC)
[6] = dose: 0.63 mg/kg/injection, schedule: Q01DX010 (ip), vehicle: saline
[7] = dose: 1.25 mg/kg/injection, schedule: Q01DX010 (ip), vehicle: saline

## O=c1[nH]c(=O)n(C2CC(O)C(CO)O2)cc1Br (centres undefined)
dose: 31.25 mg/kg/injection, schedule: Q01DX010 (ip), vehicle: carboxymethylcellulose (CMC)
  T/C: 80 % of control
[1]
  T/C: 86 % of control
[2]
  T/C: 74 % of control
[3]
  T/C: 88 % of control
[4]
  T/C: 74 % of control

## C[C@]12C=CC(=O)C=C1CC[C@@H]1[C@@H]2[C@@H](O)C[C@@]2(C)[C@H]1CC[C@]2(O)C(=O)CO
dose: 32.0 mg/kg/injection, schedule: Q01DX010 (sc), vehicle: steriod suspending solution
  T/C: 63 % of control

## CCCCCCCCCCCCNCCCCCCCCCCCC
dose: 0.9 mg/kg/injection, schedule: Q01DX010 (ip), vehicle: carboxymethylcellulose (CMC)
  T/C: 109 % of control
dose: 1.8 mg/kg/injection, schedule: Q01DX010 (ip), vehicle: carboxymethylcellulose (CMC)
  T/C: 109 % of control
dose: 3.7 mg/kg/injection, schedule: Q01DX010 (ip), vehicle: carboxymethylcellulose (CMC)
  T/C: 98 % of control
dose: 7.5 mg/kg/injection, schedule: Q01DX010 (ip), vehicle: carboxymethylcellulose (CMC)
  T/C: 88 % of control and 110 % of control

## COc1ccc(/C=N/NC(N)=S)cc1
dose: 75.0 mg/kg/injection, schedule: Q01DX010 (ip), vehicle: saline
  T/C: 87 % of control
dose: 150.0 mg/kg/injection, schedule: Q01DX010 (ip), vehicle: saline
  T/C: 99 % of control
dose: 300.0 mg/kg/injection, schedule: Q01DX010 (ip), vehicle: saline
  T/C: 82 % of control
dose: 600.0 mg/kg/injection, schedule: Q01DX010 (ip), vehicle: saline
  T/C: 85 % of control

## Nc1nc(N)c2nc(CNc3ccc(C(=O)NC(CCC(=O)O)C(=O)O)cc3)cnc2n1 (centres undefined)
dose: 63.0 micrograms/kg/injection, schedule: Q01DX010 (ip), vehicle: alkali diluted with saline
  T/C: 86 % of control
dose: 125.0 micrograms/kg/injection, schedule: Q01DX010 (ip), vehicle: alkali diluted with saline
  T/C: 82 % of control

## C[C@@H]1C[C@@H]([C@H](O)CC2CC(=O)NC(=O)C2)C(=O)[C@@H](C)C1
dose: 1.6 mg/kg/injection, schedule: Q01DX010 (ip), vehicle: water
  T/C: 91 % of control
dose: 3.1 mg/kg/injection, schedule: Q01DX010 (ip), vehicle: water
  T/C: 84 % of control
dose: 6.25 mg/kg/injection, schedule: Q01DX010 (ip), vehicle: saline
  T/C: 50 % of control
dose: 6.3 mg/kg/injection, schedule: Q01DX010 (ip), vehicle: water
  T/C: 78 % of control

## COC(=O)c1nc(-c2ccc3c(n2)C(=O)C(N)=C(OC)C3=O)c(N)c(-c2ccc(OC)c(OC)c2O)c1C
dose: 0.35 mg/kg/injection, schedule: Q01DX010 (ip), vehicle: other
  T/C: 71 % of control
dose: 0.65 mg/kg/injection, schedule: Q01DX010 (ip), vehicle: other
  T/C: 60 % of control
dose: 1.08 mg/kg/injection, schedule: Q01DX010 (ip), vehicle: other
  T/C: 32 % of control
dose: 1.8 mg/kg/injection, schedule: Q01DX010 (ip), vehicle: other
  T/C: 4 % of control

## CC[C@@H](c1ccc(O)cc1)[C@@H](CC)c1ccc(O)cc1
dose: 62.0 mg/kg/injection, schedule: Q01DX010 (sc), vehicle: steriod suspending solution
  T/C: 80 % of control
dose: 125.0 mg/kg/injection, schedule: Q01DX010 (sc), vehicle: steriod suspending solution
  T/C: 87 % of control
dose: 250.0 mg/kg/injection, schedule: Q01DX010 (sc), vehicle: steriod suspending solution
  T/C: 83 % of control
dose: 500.0 mg/kg/injection, schedule: Q01DX010 (sc), vehicle: steriod suspending solution
  T/C: 91 % of control and 105 % of control
dose: 1000.0 mg/kg/injection, schedule: Q01DX010 (sc), vehicle: steriod suspending solution
  T/C: 111 % of control

## Oc1cc(CN(CCCl)CCCl)c(O)cc1CN(CCCl)CCCl
dose: 0.22 mg/kg/injection, schedule: Q01DX010 (sc), vehicle: steriod suspending solution
  T/C: 62 % of control
dose: 0.45 mg/kg/injection, schedule: Q01DX010 (sc), vehicle: steriod suspending solution
  T/C: 69 % of control
dose: 0.9 mg/kg/injection, schedule: Q01DX010 (sc), vehicle: steriod suspending solution
  T/C: 76 % of control
dose: 1.8 mg/kg/injection, schedule: Q01DX010 (sc), vehicle: steriod suspending solution
  T/C: 28 % of control

## O[C@H](CN1CC1)[C@@H](O)CN1CC1
dose: 0.25 mg/kg/injection, schedule: Q01DX010 (ip), vehicle: carboxymethylcellulose (CMC)
  T/C: 25 % of control
dose: 16.0 micrograms/kg/injection, schedule: Q01DX010 (ip), vehicle: carboxymethylcellulose (CMC)
  T/C: 103 % of control
dose: 31.0 micrograms/kg/injection, schedule: Q01DX010 (ip), vehicle: carboxymethylcellulose (CMC)
  T/C: 151 % of control
dose: 63.0 micrograms/kg/injection, schedule: Q01DX010 (ip), vehicle: carboxymethylcellulose (CMC)
  T/C: 55 % of control
dose: 125.0 micrograms/kg/injection, schedule: Q01DX010 (ip), vehicle: carboxymethylcellulose (CMC)
  T/C: 66 % of control

## OCC1OC(n2cnc3c(Cl)ncnc32)C(O)C1O (centres undefined)
[2]
  T/C: 100 % of control
[5]
  T/C: 107 % of control
[3]
  T/C: 93 % of control
[4]
  T/C: 35 % of control

## CCN(CC)CCNc1ccc(C)c2sc3ccccc3c(=O)c12
dose: 0.78 mg/kg/injection, schedule: Q01DX010 (ip), vehicle: methylcellulose (MC)
  T/C: 150 % of control
dose: 1.56 mg/kg/injection, schedule: Q01DX010 (ip), vehicle: methylcellulose (MC)
  T/C: 194 % of control
dose: 6.25 mg/kg/injection, schedule: Q01DX010 (ip), vehicle: methylcellulose (MC)
  T/C: 27 % of control

## O=c1[nH]c(=O)n(C2CC(O)C(CO)O2)cc1F (centres undefined)
dose: 25.0 mg/kg/injection, schedule: Q01DX010 (ip), vehicle: carboxymethylcellulose (CMC)
  T/C: 67 % of control
dose: 50.0 mg/kg/injection, schedule: Q01DX010 (ip), vehicle: carboxymethylcellulose (CMC)
  T/C: 21 % of control
dose: 100.0 mg/kg/injection, schedule: Q01DX010 (ip), vehicle: carboxymethylcellulose (CMC)
  T/C: 36 % of control

## O=CCC(O)C(O)C(O)CO (centres undefined)
[1]
  T/C: 110 % of control
[2]
  T/C: 115 % of control
[5]
  T/C: 117 % of control
[3]
  T/C: 80 % of control
[4]
  T/C: 96 % of control
dose: 2000.0 mg/kg/injection, schedule: Q01DX010 (ip), vehicle: carboxymethylcellulose (CMC)
  T/C: 94 % of control

## S=P(N1CC1)(N1CC1)N1CC1
[6]
  T/C: 57 % of control
[7]
  T/C: 2 % of control

## N[C@@H](Cc1ccc(N(CCCl)CCCl)cc1)C(=O)O
dose: 0.3 mg/kg/injection, schedule: Q01DX010 (ip), vehicle: saline
  T/C: 48 % of control
[6]
  T/C: 75 % of control
[7]
  T/C: 52 % of control
